Reference: ChEMBL document CHEMBL1212786 (Antimicrob Agents Chemother, 2010)

Experiments:
[1] = AUC (0 to infinity) in monkey at 7.5 mg/kg, po after 24 hrs by LC/MS/MS analysis; format: ADME, organism-based, Macaca mulatta; parameters: dose 7.5 mg/kg, route oral, time infinity; details: rhesus monkey, plasma
[2] = Cmax in Sprague-Dawley rat whole blood at 10 mg/kg, iv by LC/MS/MS analysis; format: ADME, organism-based; parameters: dose 10 mg/kg, route intravenous
[3] = Tmax in Sprague-Dawley rat at 10 mg/kg, po by LC/MS/MS analysis; format: ADME, organism-based; parameters: dose 10 mg/kg, route oral; details: in vivo
[4] = AUC (0 to infinity) in monkey at 1 mg/kg, iv after 24 hrs by LC/MS/MS analysis; format: ADME, organism-based, Macaca mulatta; parameters: time infinity, dose 1 mg/kg, route intravenous; details: rhesus monkey, plasma
Hepatitis C virus [5] = test: microbe, parasite or virus in culture; details: Huh-7, 24 h
Description: Antiviral activity against Hepatitis C virus infected in human Huh7ET cells assessed as inhibition of viral replication after 24 hrs by RT-PCR analysis

Hepatitis C virus [6] = test: Antiviral activity against Hepatitis C virus infected in human Huh7ET cells assessed as inhibition of viral replication at 0.02 to 5 uM by luciferase reporter gene assay; format: functional, organism-based; details: Hepacivirus hominis, Huh-7, TDE = time-dependent effect
PBMC [7] = test: Cytotoxicity against human PBMC at 0.0031 uM after 18 hrs; format: cell-based
[8] = Oral bioavailability in monkey at 15 mg/kg after 24 hrs by LC/MS/MS analysis; format: ADME, organism-based, Macaca mulatta; details: rhesus monkey, in vivo
Hepatitis C virus [9] = test: microbe, parasite or virus in culture; details: Huh-7, 120 h
Description: Antiviral activity against Hepatitis C virus infected in human Huh7ET cells assessed as inhibition of viral replication after 120 hrs by luciferase reporter gene assay

[10] = Intrinsic clearance in CD1 mouse liver microsomes at 1 uM after 5 to 30 mins by MS analysis in presence of NADPH; format: ADME, Microsome
[11] = Apparent elimination half life in Sprague-Dawley rat at 2 mg/kg, iv by LC/MS/MS analysis; format: ADME, organism-based; parameters: dose 2 mg/kg, route intravenous; details: in vivo
[12] = Half life in human liver microsomes at 1 uM after 5 to 30 mins by MS analysis in presence of NADPH; format: ADME, Microsome
Hepatitis C virus [13] = test: microbe, parasite or virus in culture; details: Huh-7, 72 h
[14] = Cmax in monkey at 5 mg/kg, po after 24 hrs by LC/MS/MS analysis; format: ADME, organism-based, Macaca mulatta; parameters: dose 5 mg/kg, route oral; details: rhesus monkey, in vivo
[15] = Cmax in monkey at 7.5 mg/kg, po after 24 hrs by LC/MS/MS analysis; format: ADME, organism-based, Macaca mulatta; parameters: dose 7.5 mg/kg, route oral; details: rhesus monkey, in vivo
Hepatitis C virus [16] = test: microbe, parasite or virus in culture; details: Huh-7, 48 h
Description: Antiviral activity against Hepatitis C virus infected in human Huh7ET cells assessed as inhibition of viral replication after 48 hrs by luciferase reporter gene assay

[17] = Tmax in Sprague-Dawley rat at 20 mg/kg, po by LC/MS/MS analysis; format: ADME, organism-based; parameters: dose 20 mg/kg, route oral; details: in vivo
[18] = Systemic clearance in Sprague-Dawley rat at 2 mg/kg, iv after 24 hrs by LC/MS/MS analysis; format: ADME, organism-based; parameters: dose 2 mg/kg, route intravenous; details: in vivo
[19] = Cmax in Sprague-Dawley rat at 10 mg/kg, po after 24 hrs by LC/MS/MS analysis; format: ADME, organism-based; parameters: dose 10 mg/kg, route oral; details: in vivo
Cytochrome P450 2C19 = Cytochrome P450 2C19 (Homo sapiens, UniProt P33261); test: Inhibition of human recombinant CYP2C19 after 30 mins; format: ADME
Hepatitis C virus [20] = test: Antiviral activity against Hepatitis C virus infected in human Huh7ET cells assessed as inhibition of viral replication after 72 hrs by luciferase reporter gene assay; format: functional, organism-based
[21] = AUC (0 to infinity) in monkey at 1.4 mg/kg, iv after 24 hrs by LC/MS/MS analysis; format: ADME, organism-based, Macaca mulatta; parameters: time infinity, dose 1.4 mg/kg, route intravenous; details: rhesus monkey, plasma
Hepatocyte [22] = test: Cellular uptake in human hepatocytes assessed per mg of cellular protein association with nonparenchymal fraction at 2.27 uM after 1 hr by LC/MS/MS analysis; format: ADME, cell-based
[23] = AUC (2 to 24 hrs) in Sprague-Dawley rat liver at 30 mg/kg, po by LC/MS/MS analysis; format: ADME, organism-based; parameters: time upper 24 hr, time lower 2 hr, dose 30 mg/kg, route oral
[24] = Cmax in monkey at 1.4 mg/kg, iv after 24 hrs by LC/MS/MS analysis; format: ADME, organism-based, Macaca mulatta; parameters: dose 1.4 mg/kg, route intravenous; details: rhesus monkey, in vivo
[25] = Cmax in Sprague-Dawley rat at 2 mg/kg, iv after 24 hrs by LC/MS/MS analysis; format: ADME, organism-based; parameters: dose 2 mg/kg, route intravenous; details: in vivo
Cytochrome P450 2C9 = Cytochrome P450 2C9 (Homo sapiens, UniProt P11712); test: Inhibition of human recombinant CYP2C9 after 30 mins; format: ADME
[26] = Cytotoxicity against human Huh7ET cells assessed as lactate dehydrogenase release up to 5 uM after 72 hrs in presence of 10 to 40% human serum; format: cell-based; details: huh-7, 72 h
[27] = Apparent elimination half life Sprague-Dawley rat at 10 mg/kg, po after 24 hrs by LC/MS/MS analysis; format: ADME, organism-based; parameters: dose 10 mg/kg, route oral; details: in vivo
Hepatitis C virus [28] = test: microbe, parasite or virus in culture; details: Huh-7
Description: Antiviral activity against Hepatitis C virus infected in human Huh7ET cells assessed as suppression of full length viral RNA replication after 24 to 72 hrs by luciferase reporter gene assay

[29] = Cmax in Sprague-Dawley rat whole blood at 10 mg/kg, po by LC/MS/MS analysis; format: ADME, organism-based; parameters: dose 10 mg/kg, route oral
[30] = Oral bioavailability in Sprague-Dawley rat at 10 mg/kg after 24 hrs by LC/MS/MS analysis; format: ADME, organism-based; details: in vivo
[31] = AUC (0 to infinity) in Sprague-Dawley rat at 10 mg/kg, po after 24 hrs by LC/MS/MS analysis; format: ADME, organism-based; parameters: time infinity, dose 10 mg/kg, route oral; details: plasma
[32] = Cytotoxicity against human Huh7ET cells assessed as lactate dehydrogenase release up to 5 uM after 72 hrs; format: cell-based; details: huh-7, 72 h
[33] = Apparent volume of distribution in monkey at 1 mg/kg, iv after 24 hrs by LC/MS/MS analysis; format: ADME, organism-based, Macaca mulatta; parameters: dose 1 mg/kg, route intravenous; details: rhesus monkey, in vivo, read-out: Vz
[34] = AUC (2 to 24 hrs) in Sprague-Dawley rat whole blood at 10 mg/kg, iv by LC/MS/MS analysis; format: ADME, organism-based; parameters: time 2-24 hr, dose 10 mg/kg, route intravenous
[35] = Apparent elimination half life in monkey at 1 mg/kg, iv by LC/MS/MS analysis; format: ADME, organism-based, Macaca mulatta; parameters: dose 1 mg/kg, route intravenous; details: rhesus monkey, in vivo
PBMC [36] = test: Antiinflammatory activity in human PBMC assessed as inhibition of anti-CD3/CD28 antibody-induced IL-2 production treated for 1 hr before anti-CD3/CD28 antibody challenge measured after 6 hrs by immunosuppression assay; format: functional, cell-based; details: read-out: EC50
Hepatocyte [37] = test: Cellular uptake in human hepatocytes assessed per mg of cellular protein association with hepatocyte fraction at 2.27 uM after 1 hr by LC/MS/MS analysis; format: ADME, cell-based
[38] = Cytotoxicity against human PBMC assessed as cell viability at 10 uM after 18 hrs relative to control; format: cell-based; details: read-out: Activity
Hepatitis C virus [39] = test: microbe, parasite or virus in culture; details: Huh-7, 72 h; remark: listed apart in the source
Description: Antiviral activity against Hepatitis C virus infected in human Huh7ET cells assessed as inhibition of viral replication after 72 hrs by RT-PCR analysis

[40] = Tmax in monkey at 15 mg/kg, po by LC/MS/MS analysis; format: ADME, organism-based, Macaca mulatta; parameters: dose 15 mg/kg, route oral; details: rhesus monkey, in vivo
[41] = AUC (0 to infinity) in Sprague-Dawley rat at 5 mg/kg, iv after 24 hrs by LC/MS/MS analysis; format: ADME, organism-based; parameters: time infinity, dose 5 mg/kg, route intravenous; details: plasma
[42] = Oral bioavailability in Sprague-Dawley rat at 20 mg/kg after 24 hrs by LC/MS/MS analysis; format: ADME, organism-based; details: in vivo
Hepatocyte [43] = test: Cellular uptake in human hepatocytes assessed per mg of cellular protein association with hepatocyte fraction at 0.378 uM after 1 hr by LC/MS/MS analysis; format: ADME, cell-based
[44] = Cmax in Sprague-Dawley rat liver at 10 mg/kg, po by LC/MS/MS analysis; format: ADME, organism-based; parameters: dose 10 mg/kg, route oral
[45] = Apparent volume of distribution in monkey at 1.4 mg/kg, iv after 24 hrs by LC/MS/MS analysis; format: ADME, organism-based, Macaca mulatta; parameters: dose 1.4 mg/kg, route intravenous; details: rhesus monkey, in vivo, read-out: Vz

Cytochrome P450 2C19, sequence (P33261 whole entry): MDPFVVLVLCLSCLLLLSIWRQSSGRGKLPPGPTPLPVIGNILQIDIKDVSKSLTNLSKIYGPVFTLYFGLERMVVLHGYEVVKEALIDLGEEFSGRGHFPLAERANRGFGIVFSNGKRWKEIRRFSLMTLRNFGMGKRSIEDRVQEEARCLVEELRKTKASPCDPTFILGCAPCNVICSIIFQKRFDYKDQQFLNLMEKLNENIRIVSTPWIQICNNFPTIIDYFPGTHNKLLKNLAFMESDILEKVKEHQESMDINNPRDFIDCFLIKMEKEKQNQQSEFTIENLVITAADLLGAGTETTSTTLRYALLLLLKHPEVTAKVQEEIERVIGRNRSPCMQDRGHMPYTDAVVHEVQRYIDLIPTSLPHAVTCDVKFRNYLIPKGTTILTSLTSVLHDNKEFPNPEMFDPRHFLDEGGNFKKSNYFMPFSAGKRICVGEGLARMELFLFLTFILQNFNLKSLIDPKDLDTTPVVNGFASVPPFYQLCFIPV
Cytochrome P450 2C9, sequence (P11712 whole entry): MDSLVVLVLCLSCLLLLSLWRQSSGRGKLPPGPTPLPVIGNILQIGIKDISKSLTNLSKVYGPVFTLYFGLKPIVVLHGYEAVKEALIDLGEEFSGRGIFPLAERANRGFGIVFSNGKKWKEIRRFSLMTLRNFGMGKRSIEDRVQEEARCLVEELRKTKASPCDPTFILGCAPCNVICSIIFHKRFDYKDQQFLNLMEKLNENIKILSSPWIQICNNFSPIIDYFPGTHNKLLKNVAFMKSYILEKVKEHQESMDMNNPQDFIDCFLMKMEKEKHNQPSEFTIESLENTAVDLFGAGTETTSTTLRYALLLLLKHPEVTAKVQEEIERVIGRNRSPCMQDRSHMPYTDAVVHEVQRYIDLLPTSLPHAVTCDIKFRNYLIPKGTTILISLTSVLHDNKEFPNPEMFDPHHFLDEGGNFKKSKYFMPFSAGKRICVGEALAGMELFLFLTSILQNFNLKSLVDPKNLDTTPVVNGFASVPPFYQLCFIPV

AUC(0-inf) [1]: 42000 ng·h/mL | Cmax [2]: 3360 ng/mL | Tmax [3]: 8 h | AUC(0-inf) [4]: 31500 ng·h/mL | EC50 (Hepatitis C virus [5]): 120 nM | bioavailability [8]: 11.1% | EC50 (Hepatitis C virus [9]): 150 nM | clearance [10]: 9 µL/min/mg | half-life [11]: 26.3 h | half-life at 1 µM [12]: 1.05 h | EC50 (Hepatitis C virus [13]): 110 nM | Cmax [14]: 1810 ng/mL | Cmax [15]: 1930 ng/mL | EC50 (Hepatitis C virus [16]): 70 nM | Tmax [17]: 4 h | clearance [18]: 1.48 mL/min/kg | Cmax [19]: 1400 ng/mL | IC50 (Cytochrome P450 2C19): 12400 nM | EC90 (Hepatitis C virus [20]; Huh-7, 72 h): 350 nM | AUC(0-inf) [21]: 49900 ng·h/mL | Drug uptake (Hepatocyte [22]): 3.16 ng/mg | AUC(0-t) [23]: 141000 ng·h/mL | Cmax [24]: 2310 ng/mL | Cmax [25]: 1510 ng/mL | IC50 (Cytochrome P450 2C9): 13400 nM | half-life [27]: 21.4 h | EC50 (Hepatitis C virus [28]): 130 nM | Cmax [29]: 1870 ng/mL | bioavailability [30]: 23.6% | AUC(0-inf) [31]: 26500 ng·h/mL | Vd [33]: 1.02 L/kg | AUC(0-t) [34]: 30500 ng·h/mL | half-life [35]: 22.3 h | Drug uptake (Hepatocyte [37]): 6.05 ng/mg | EC50 (Hepatitis C virus [39]): 160 nM | Tmax [40]: 2 h | AUC(0-inf) [41]: 37300 ng·h/mL | bioavailability [42]: 18.9% | Drug uptake (Hepatocyte [43]): 1.03 ng/mg | Cmax [44]: 11100 ng/mL | Vd [45]: 1.69 L/kg
SMILES: C/C=C/C[C@@H](C)[C@@H](O)[C@H]1C(=O)N[C@@H](CC)C(=O)N(C)C(SCCN(C)C)C(=O)N(C)[C@@H](CC(C)(C)O)C(=O)N[C@@H](C(C)C)C(=O)N(C)[C@@H](CC(C)C)C(=O)N[C@@H](C)C(=O)N[C@H](C)C(=O)N(C)[C@@H](CC(C)C)C(=O)N(C)[C@@H](CC(C)C)C(=O)N(C)[C@@H](C(C)C)C(=O)N1C (single isomer, unassigned) [SCY 635]
Activity (Hepatitis C virus [6]): tde | Activity (PBMC [7]): Non-toxic | Activity (Hepatitis C virus [20]; Hepacivirus hominis, Huh-7): Dose-dependent effect | Activity [26]: Non-toxic | Activity [32]: Non-toxic | EC50 (PBMC [36]): 5300 nM | viability at 18 h, 10 µM [38]: 10.9%
